Experimental data published in patent US11000505B2 (priority 2010, dated 2021).
Values joined by “and” are separate entries in the source; they are usually repeats but may differ in a detail not shown here. Equal entries are not always repeated.

Columns and labels:
pial artery [1] = settings: pig, in vivo
cloned human mu receptor = target: T1, cloned human mu receptor (Homo sapiens, UniProt P35372); assay: In-vitro affinity determination, [3H]DAMGO competition; assay type: binding
T1 construct: expressed in transfected cells; host or cells: HEK cells (NIMH PDSP)
T1 sequence (P35372 whole entry): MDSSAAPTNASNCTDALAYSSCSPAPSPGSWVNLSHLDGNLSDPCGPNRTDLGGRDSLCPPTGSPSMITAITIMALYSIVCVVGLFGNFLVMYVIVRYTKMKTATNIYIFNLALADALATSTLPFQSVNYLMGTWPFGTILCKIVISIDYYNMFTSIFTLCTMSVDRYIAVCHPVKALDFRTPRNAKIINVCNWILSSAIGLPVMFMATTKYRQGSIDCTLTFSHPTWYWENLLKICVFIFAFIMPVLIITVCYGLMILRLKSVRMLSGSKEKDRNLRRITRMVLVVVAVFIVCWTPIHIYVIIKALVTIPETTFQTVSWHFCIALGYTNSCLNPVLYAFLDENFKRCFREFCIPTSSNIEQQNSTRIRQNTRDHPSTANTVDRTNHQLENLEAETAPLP

[2] = target: T2, cloned rat kappa receptor (Rattus norvegicus, UniProt P34975); assay: biochemical; assay type: binding
T2 construct: expressed in transfected cells; host or cells: HEK cells (NIMH PDSP)
T2 sequence (P34975 whole entry): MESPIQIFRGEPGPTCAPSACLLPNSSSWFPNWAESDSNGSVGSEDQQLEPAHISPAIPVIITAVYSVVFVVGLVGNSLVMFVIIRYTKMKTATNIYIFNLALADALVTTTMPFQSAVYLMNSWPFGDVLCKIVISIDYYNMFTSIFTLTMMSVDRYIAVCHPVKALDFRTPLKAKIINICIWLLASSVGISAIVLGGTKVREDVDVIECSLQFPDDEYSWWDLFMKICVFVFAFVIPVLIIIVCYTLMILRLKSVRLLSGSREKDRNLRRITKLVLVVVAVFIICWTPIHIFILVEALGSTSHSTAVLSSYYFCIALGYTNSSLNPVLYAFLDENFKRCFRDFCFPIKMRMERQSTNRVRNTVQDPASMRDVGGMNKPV

cAMP = cAMP in CSF by ELISA (Example 7); assay type: in vivo, newborn pigs
Excerpt: Newborn pigs (aged up to 6 days, 1.1-2.0 kg) of both genders were used for this study. Protocols were approved by the Institutional Animal Care and Use Committee of the University of Pennsylvania (Philadelphia). The newborn piglet model was used because its brain is gyrencepahalic and contains more white matter than grey matter, which is similar to that of humans. Furthermore, the head is large enough for the insertion of a cranial window and vascular visualization. Animals were induced with isoflurane (1-2 minimum alveolar concentration) and maintained with α-chloralose (80-100 mg/kg supplemented with 5 mg/kg·h, IV). Both femoral arteries were catheterized to monitor blood pressure and blood gas to maintain a constant carbon dioxide and pH. A catheter was inserted into the right femoral vein for medication administration. Animals were ventilated with room air after tracheal intubation. A heating pad was used to maintain the rectal temperature of animals at 37-39° C. A closed cranial window on the top of the head of the piglet was placed for direct pial artery visualization and diameter measurement. The closed cranial window consisted of three parts: a stainless steel ring, a circular glass cover slip, and three ports consisting of 17-gauge hypodermic needles attached to three precut holes in the stainless steel ring. CSF was collected through a cranial window port for cAMP measurement in some animals. […] Vascular diameter was measured from a video monitor that was connected to the camera with a video microscaler (VPA 550; For-A-Corp., Los Angeles, Calif.) by the investigator who administered the medication.
The cerebral cortical periarachnoid CSF samples were collected before and 10 min afterward administration of herkinorin and NTP to measure the cAMP level. […] Commercially available ELISA kits (Assay Designs, Ann Arbor, Mich.) were used to quantify cAMP concentrations.

pial artery [3] = settings: pig, in vivo; remark: listed apart in the source
[4] = test system: mu, kappa and delta receptors; settings: competition binding assays; cited from earlier work
pial artery [5] = assay type: in vivo, newborn pigs; settings: pig, in vivo
pial artery [6] = assay type: in vivo, piglets; settings: in vivo

O=c1[nH]c2cc(C(F)(F)F)ccc2n1-c1cc(C(F)(F)F)ccc1O [NS1619, reference compound]
dilation response in presence of iberiotoxin (pial artery [1]): blocked the dilation effects of NS1619

CC1(C)Oc2ccc(C#N)cc2C(N2CCCC2=O)C1O (stereo not drawn) [cromakalim, reference compound]
dilation response in presence of glibenclamide (pial artery [1]): blocked the dilation in response to cromakalim

COC(=O)[C@@H]1C[C@H](OC(=O)c2ccccc2)C(=O)[C@H]2[C@@]1(C)CC[C@H]1C(=O)O[C@H](c3ccoc3)C[C@]21C [herkinorin]
Ki (cloned human mu receptor; HEK cells over-expressing receptor): 45 nM
binding affinity to mu receptor relative to kappa receptor (cloned human mu receptor; mu stronger than kappa): approximately 4 fold
Ki [2]: 184 nM
cAMP levels in the CSF (cAMP; 10 min after administration): significantly increased cAMP levels in the CSF
elevated cAMP levels with NTP (cAMP; pig, in vivo): blocked by NTP
elevated cAMP levels with β-FNA (cAMP; pig, in vivo): not affected after β-FNA administration
concentration required to effectively dilate pial arteries (pial artery [3]): 0.1 nM
dilation in presence of NTP (pial artery [3]): totally abolished by norbinaltorphimine
dilation in presence of Rp-cAMPS (pial artery [3]): blunted herkinorin-mediated pial artery dilation
dilation in presence of β-FNA (pial artery [3]): not affected by β-FNA
pial artery diameter dilation (pial artery [3]): 10.6% and 17.8%
systemic blood pressure (pial artery [3]): without significant systemic blood pressure variation
selectivity for mu over delta receptors [4]: approximately 98 fold
selectivity for mu over kappa receptors [4]: approximately 8 fold

CC(C)NCC(O)c1ccc(O)c(O)c1 (stereo not drawn) [isoproterenol, reference compound]
pial artery response to the agent before and after HI (pial artery [5]): no change was observed
pial artery response to the agent before and after hypoxia/ischemia (pial artery [6]): unchanged in all groups
dilation response in presence of naloxone (pial artery [1]): unaffected
dilation response in presence of norbinaltorphimine (pial artery [1]): unaffected
dilation in presence of NTP (pial artery [3]): unchanged by either NTP or β-FNA
dilation in presence of β-FNA (pial artery [3]): unchanged by either NTP or β-FNA

methionine enkephalin [reference compound]
dilation response in presence of naloxone (pial artery [1]): blocked the dilation effects
dilation response in presence of norbinaltorphimine (pial artery [1]): blocked the dilation effects
